Measurements from PubChem BioAssay AID1421 (Emory University Molecular Libraries Screening Center, 2008).

These molecules were tested against Prostaglandin E2 receptor EP2 subtype (Homo sapiens) (UniProt P43116) (assay: compounds shifting PGE2 potency at EP2 – cell-based, human EP2, PGE2 EC50 shift, dose response (AID 1421)). Settings: EP2-expressing cells, PGE2 EC50 shift by compound; measured here: PGE2 EC50 at 6.7 uM compound.
Chain of Prostaglandin E2 receptor EP2 subtype (Homo sapiens) (P43116 whole entry, looked up): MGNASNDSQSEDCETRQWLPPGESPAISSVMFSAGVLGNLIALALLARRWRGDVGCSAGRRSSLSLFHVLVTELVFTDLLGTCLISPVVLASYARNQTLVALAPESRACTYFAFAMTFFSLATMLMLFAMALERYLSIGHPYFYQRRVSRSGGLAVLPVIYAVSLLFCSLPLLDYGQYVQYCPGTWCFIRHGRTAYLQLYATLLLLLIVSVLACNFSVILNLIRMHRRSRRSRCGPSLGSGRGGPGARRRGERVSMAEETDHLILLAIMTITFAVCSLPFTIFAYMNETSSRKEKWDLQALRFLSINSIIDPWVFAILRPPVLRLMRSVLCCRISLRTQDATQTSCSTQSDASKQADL

Structure (SMILES)	PGE2 EC50 with compound [nM]
CC1=C(C(=O)OCc2ccccc2)C(c2ccc(Cl)cc2Cl)NC(=O)N1CCCCCC(=O)O (stereo unspecified)	1.23
Brc1ccc(Cn2c(-c3cncs3)nc3ccccc32)cc1	1.66
CC(/C=C1\SC(=S)N(C(C(=O)O)C(C)C)C1=O)=C\c1ccccc1 (stereo unspecified)	0.86
c1ccc(-c2noc(-c3ccccc3-c3ccccc3)n2)cc1	0.84
Cc1cccc(C(=O)c2cnc3ccccc3c2-c2ccccc2)c1	0.95
CCOC(=O)c1ccc2nc(C(F)(F)F)[nH]c(=O)c2c1	1.19
CSc1nnc(CSCc2ccc(Cl)cc2Cl)n1-c1ccccc1	2.63
CC1=CC(C)(C)N(S(=O)(=O)c2ccc(C)cc2)c2cc(C)ccc21	1.17
COc1ccc(-c2c3c([nH]c(=S)c2C#N)CCC3)cc1	2.78
Cc1cc(C)n(-c2cc(-c3ccccc3)nc(C)n2)n1	2.6
O=C(Nc1ccccc1N1CCCCC1)c1cnccn1	0.93
CCCc1cc(=O)n2[nH]c(NCc3cccs3)nc2n1	2.54
CCCCn1c(-c2csc3c2CCCC3)n[nH]c1=S	1.25
O=c1c2oc3ccccc3c2[nH]c(=S)n1-c1ccccc1	1.25
CCOP(=O)(OCC)c1nc(-c2cccc3ccccc23)oc1NCc1ccc(OC)cc1	0.72
C=C(C)Cn1c(C)cc(C)c(S(=O)(=O)c2ccc(C)cc2)c1=O	1.04
COC(=O)c1ccc(-c2ccco2)n1Cc1cccc(C)c1	2.63
Cc1cc(NC(=O)Cn2nnc3sc4c(c3c2=O)CCC(C(C)(C)C)C4)no1 (stereo unspecified)	0.98
CCc1ccc(OCc2n[nH]c(=S)n2C(C)CCCC(C)C)cc1 (stereo unspecified)	1.4

Structure (SMILES)	PGE2 EC50 with compound [nM]
COc1cc(NC(=S)NC(=O)c2cc(C)cc(C)c2)ccc1NC(=O)c1cccs1	2.54
C=CCSc1nc2sc(C)c(C)c2c(=O)n1CC=C	0.83
Cc1cc(C)c(C#N)c(Oc2ccccc2Br)n1	1.01
O=C(O)/C=C/C(O)c1ccc(Cl)cc1 (stereo unspecified)	0.97
CCOC(=O)c1oc2ccccc2c1NC(=O)c1ccccc1OC	1.25
CCOC(=O)COc1cc(Br)c(/C=N/Nc2ccccc2)cc1OC	2.69
CN(CC(=O)Nc1ccccc1Oc1ccccc1)Cc1ccccc1F	2.47
CCOC(=O)c1cc(CC)sc1NC(=O)c1cc(OC)c(OC)c(OC)c1	0.82
Cn1c(=O)c2c(SCc3cccnc3)nc(CC(C)(C)C)nc2n(C)c1=O	2.57
CCOC(=O)c1c(-c2cccs2)csc1NC(=O)COC(=O)c1c(C)noc1C	0.32
CCN(Cc1cc(Cl)cc(C)c1O)Cc1c(O)ccc2ccccc12	0.84
CC(C)CCn1c(Oc2ccc(Cl)cc2)nc2c1c(=O)n(C)c(=O)n2C	0.72
COc1ccc(OC(=O)c2cccc([N+](=O)[O-])c2)c(C(=O)/C=C/c2cccs2)c1	2.52
Cc1cc(C(=O)Nc2cccc(/C=C/C(=O)O)c2)c(C)o1	0.36
Cc1ccccc1C(=O)Nc1ccccc1Sc1ccccc1	0.86
O=C(c1ccc(Br)o1)N(Cc1ccccc1)Cc1ccccc1	0.77
Cc1ccc(OCC(=O)NNC(=O)C2CCN(c3ncccn3)CC2)cc1	0.81
COc1ccc(-c2nc(NC(C)=O)sc2-c2ccccc2)cc1	1.01
COc1ccccc1CN(C)CC(=O)Nc1ccccc1-c1ccccc1	1.43

Structure (SMILES)	PGE2 EC50 with compound [nM]
CCCC(=O)O[C@H]1C[C@@H](C)N(C(=O)c2ccccc2)c2ccc(C)cc21	0.88
CCOC(=O)c1ccccc1NC(=O)CSc1ccccc1	1.07
CCOC(=O)c1c(NC(=O)Cn2nnc3ccccc32)sc2c1CCC(C)C2 (stereo unspecified)	1.14
S=c1[nH]nc(-c2ccc(Br)o2)n1Cc1ccccc1	1.34
CCOc1ccc(C2=Nn3c(nnc3-c3ccccc3OC)SC2)cc1	0.91
CC(C)NC(=S)N/N=C1\CCCCC1C1CCCCC1 (stereo unspecified)	1.34
C[C@@H]1CC[C@H]2C(C)(C)C3CC12CC[C@@]3(C)O (stereo partly specified)	0.32
Cc1cc(Br)c2nc3c(c(C(=O)O)c2c1)CCCCC3	2.78
Cc1cccc(OC(=O)c2sc(Cl)nc2C)c1	0.83
O=c1[nH]c(=S)c2c(n1-c1ccccc1)CCC2	1.46
c1ccc(-c2ccccc2-c2nc(-c3cccnc3)no2)cc1	2.82
CCCCc1nc(SCCOC)c2c(=O)n(C)c(=O)n(C)c2n1	1.42
Cc1ccc(N/C(C(Cl)=C(Cl)Cl)=C(/Cl)[N+](=O)[O-])c(C)c1	1.32
CCCC(=O)N1CCCC(c2nc(-c3cccs3)no2)C1 (stereo unspecified)	1.2
Cn1c(=O)c(NCCc2ccccc2)c2c3c(cccc31)C(=O)c1ccccc1-2	0.31
CCOC(=O)c1ccccc1NC(=O)COc1ccccc1	1.04
Cc1cc(NC(=O)C2=C(O)c3ccccc3S(=O)(=O)N2C)no1	1.8
COc1ccccc1CNC(=O)C1(c2ccc(Cl)cc2)CC1	0.82
